# Reference: patent US9937225B2, “Topical formulations and uses thereof” (OCULAR TECHNOLOGIES SARL, priority 2012, dated 2018)
# Tests used:
# [1] = Weight percent of compound 1001 loaded into mixed nanomicelles (entrapment, RP-HPLC); assay type: physicochemical; conditions: solvent evaporation, HCO-60 4 wt %, Octoxynol-40 0.01 wt %
# Experimental: To determine the entrapment efficiency of the formulation, all the prepared formulations were subjected to entrapment efficiency test. Briefly, formulations were vortex mixed for homogeneity and 1 mL was transferred to a fresh (1.5 mL) eppendorf tube. Each formulation was lyophilized to obtain a solid at the bottom of eppendorf tube. The obtained solid was suspended in 1 mL of organic solvent (diethyl ether) to generate reverse micelles and release the drug into the external organic solvent. The organic solvent was evaporated overnight in speed vacuum. The resultant reversed micelles were resuspended in 1 mL of 2-propanol (dilution factor was taken into account) and further diluted to determine the concentration of compound 1001 entrapped in each micellar preparation with HPLC. The entrapment efficiency of the formulation was calculated with the following formula (wherein MNF=Mixed Nanomicellar Formulation): […]
# In vitro analysis of compound 1001 was performed by a reversed phase high performance liquid chromatography (RP-HPLC) method with a Shimadzu HPLC pump (Shimadzu, Shimadzu Scientific instruments, Columbia, Md.), Alcott autosampler (model 718 AL), Shimadzu UV/Visible detector (Shimadzu, SPD-20A/20AV, USA), ODS column (5 μm, 150×4.6 mm) thermostated at 40°±1 C and Hewlett Packard HPLC integrator (Hewlett Packard, Palo Alto, Calif.). The mobile phase was comprised of methanol (MeOH), water and trifluoroacetic acid (TFA) (70:30:0.05% v/v) which was set at a flow rate of 0.5 mL/min. Detection wavelength was set at 272 nm. The sample tray temperature was maintained at 4° C. Calibration curve (0.5 to 5 μg/mL) for compound 1001 was prepared by making appropriate dilutions from the stock solution in 2-propanol. An injection volume of 10 μl was injected into the HPLC column for analysis. All the standards and samples prepared were stored at 4° C. before and during the analysis.
# Mixed nanomicellar formulation encapsulating compound 1001 was prepared by solvent evaporation method in two steps: 1) Preparation of basic formulation and 2) rehydration. In step one, compound 1001, HCO-60 and octoxynol-40 were dissolved separately in 0.3 mL of ethyl acetate. These three solutions were mixed together in 15-mL centrifuge tube. The resultant mixture was vortexed to obtain a homogenous solution. Ethyl acetate solvent was removed with speed vacuum to obtain a solid thin film. The residue was kept overnight under high vacuum at room temperature to remove residual organic solvent. In step two, the resultant thin film was hydrated with 1 mL of double distilled deionized water by vortexing the solution. The rehydrated formulation was suspended in 2× phosphate buffer solution, (pH 6.5). It was filtered through 0.2 μm nylon filter membrane to remove the unentrapped drug aggregates and other foreign particulates. The entrapment of compound 1001 was determined by RP-HPLC following disruption of the micelles and solubilization of 1001 in the diluent (2-propanol) as described below
# (§1) Weight percent of drug loaded into MNF was determined following the method for entrapment efficiency. Size and polydispersity index of the formulations was determined with Malvern zetasizer as described above. The formulations appear clear and have small size and narrow size distribution.
# [2] = Mixed nanomicellar size and polydispersity index (Zetasizer); assay type: physicochemical; conditions: solvent evaporation; HCO-60 4 wt %, Octoxynol-40 0.01 wt %, 1001 initially added 0.120 wt %
# Experimental: The formulation size and polydispersity index were determined with Zetasizer, Malvern Instruments, NJ. In brief, approximately 1 ml of each formulation was transferred to a cuvette and placed in the instrument. A laser beam of light was used to determine the mixed nanomicellar size.
# as §1
structure (smiles),measurement,setting,value
C#CC[C@@H](O)/C=C/C=C/C#C[C@@H](O)CCCC(=O)OC(C)C [compound 1001],1001 (loaded in mixed micelles) wt %,[1]; 1001 initially added 0.035 wt %,0.033 wt %
same,1001 (loaded in mixed micelles) wt %,[1]; 1001 initially added 0.070 wt %,0.065 wt %
same,1001 (loaded in mixed micelles) wt %,[1]; 1001 initially added 0.095 wt %,0.084 wt %
same,1001 (loaded in mixed micelles) wt %,[1]; 1001 initially added 0.120 wt %,0.11 wt %
same,1001 (loaded in mixed micelles) wt %,[1]; 1001 initially added 0.250 wt %,0.26 wt %
same,1001 (loaded in mixed micelles) wt %,[1]; 1001 initially added 0.300 wt %,0.32 wt %
same,1001 (loaded in mixed micelles) wt %,[1]; 1001 initially added 0.400 wt %,0.45 wt %
same,Polydispersity Index,[2],0.320
